# According to patent US11541059B2, “Heterocyclic compounds and uses thereof” (Infinity Pharmaceuticals, Inc., priority 2014, dated 2023):
# Assays:
# human T cells = assay: Concanavalin A-induced model for activation of human T cells (IFN-γ); format: cell-based; settings: isoform selective concentrations
# 4T1 breast cancer = assay: Subcutaneous 4T1 breast cancer model; format: in vivo; settings: co-administration with docetaxel, paclitaxel, or 5-FU
# [1] = Pharmacokinetics of Compound BB, single and repeat oral dose; format: in vivo, mouse; settings: female CB6F1 mice, 2, 7.5, 15 mg/kg PO
# Description: Animals were weighed daily prior to dosing. […] On subsequent dosing days, the animals' condition was noted prior to dosing; the animals were observed within 4 hours of dosing, and at the end of the day.
# Samples were collected at pre-dose 0.25, 0.5, 1, 2, 4, 6 and 24 h following the first dose on day 1 and pre-dose (trough), 0.25, 0.5, 1, 2, 4, 6 and 24 h following the final dose on day 3. Animals received a single oral dose daily for 3 consecutive days. Blood was collected by retro-orbital bleeding for all time points on day 1. All other blood sampling was collected by a cardiac puncture. Blood was collected into K2EDTA tubes and placed on wet ice. Within 15 min of collection, the sample was centrifuged at 10,000 rpm at 4° C. for 10 min in a bench top centrifuge and the plasma transferred to a new microcentrifuge tube.
# CT26 tumors = assay: CT26 colon cancer allograft model; format: in vivo, mouse; settings: FIG. 28
# 4T1 tumors = assay: 4T1 breast cancer model; format: in vivo, mouse
# Description: Plasma is collected for pharmokinetic (PK) analysis.
# Briefly, in this study, treatment was initiated when tumors reached approximately 100 mm^3. […] 1. […] Vehicle+anti-PD-L1 (200 ug); 4.
# Luciferin measurements were taken twice a week.
# [2] = test system: TAMs / CD206 in LLC tumor brei; assay: Flow cytometry of tumor-associated myeloid cells, LLC tumor brei; format: in vivo, mouse
# Description: Flow cytometry was performed to obtain a more extensive cellular subset analysis. In particular, the study examined T cell vs. Myeloid cells, Myeloid cell subsets, Regulatory vs. effector T cells, and Tumor markers vs. WBC (e.g., PD-L1 expression on tumor).
# Different populations of tumor-associated myeloid cells can be identified by flow cytometry, e.g., monocytic immature myeloid cells (iMC),Granulocytic iMCs/Neutrophils, Tumor Associated Macrophages (TAMs), and Granulocytic MDSCs. The different populations, and panels for detecting MDSCs, are described in Cancer Discovery 2011; 1:54-67. Tumors may vary in their myeloid cell composition.
# GL261-Luc tumors = assay: GL261-Luc murine glioblastoma subcutaneous model; format: in vivo, mouse; settings: 15 mg/kg QD, PO, FIG. 47A
# [3] = test system: tumor cell inhibition of T cell proliferation; assay: Ex vivo T cell proliferation (CFSE) with CT26 tumor cells; format: in vivo, mouse; settings: tumors from treated mice
# Description: CT26 was an N-nitroso-N-methylurethane-(NNMU) induced, undifferentiated colon carcinoma cell line. It was cloned to generate the cell line designated CT26.WT (ATCC CRL-2638).
# The duration of the study was 1 week under treatment. 5-6 week old female, Balb/c mice (Jackson Labs) implanted subcutaneously with 5×10^5 CT26 cells in 100 μl PBS. CT26 cells were cultured in RPMI supplemented with 10% FBS. Dosing commenced when tumors reached an average volume of 500-600 mm^3.
# For group 3 (αPD-L1), the mice were dosed once, IP, 200 ug (200 uL from 1 mg/ml stock).
# Mice were monitored daily for adverse clinical effects. Body weights and tumor luminescent were measured two times per week. At the end of the study, tumors were harvested and cut into 3 parts; one piece for CTL killing assay, one piece for CSFE proliferation assay and one piece (split into two) for OCT/FFPE.
# Spleens from 3 vehicle treated tumor bearing mice were physically dissociated in T cell media and passed through a 70 micron filter. After red cell lysis, the cells were pooled, brought up in PBS and stained with CFSE (invitrogen). After washing, these cells were brought up in 20 ml T cell media. Half the cells received Dynal mouse activator beads (CD3/CD28 crosslinking at a 1:1 concentration). CD3/CD28 beads induce proliferation in splenocytes from tumor bearing mouse (data not shown). […]
# [4] = test system: pAKT S473 in T cells and monocytes; assay: Ex vivo whole blood CXCL12 stimulation of phospho-AKT, LLC-bearing mice; format: in vivo, mouse; settings: 12 days QD PO, 2 h post dose
# Description: C57 BL/6 Albino mice were implanted with 1×10^6 cells in a SC injection in the hind flank. The cell implant material was generated from brei that was passaged from mouse to mouse. Treatment started when tumors were between 160-180 mm^3. Mice were dosed for 12 days, QD, PO with vehicle, 15, 7.5 or 3 mg/kg. On day 12 mice were dosed and terminal blood was collected 2 h post dose by cardiac stick collection. Blood was placed in EDTA K2 collection tube and stored at room temp for PD analysis.
# Blood from each animal was aliquotted into 2 plates and warmed to 37° C. degrees. PBS was added to one plate as an unstimulated control. Murine CXCL12/SDF-1 was added to the second plate to a final concentration of 800 ng/mL and plate was returned to the 37° C. degree block. After 2 minutes of incubation, blood was lysed and fixed using paraformaldehyde. Samples were washed and frozen until flow cytometric analysis. T cells were gated using an antibody to CD3 and monocytes were gated as LY6G^− LY6C^high. Intracellular pAKT S473 was measured and percent positive was used for graphing.
# [5] = test system: collagen induced arthritis; assay: Rat collagen induced arthritis (CIA) model; settings: FIG. 1
structure (smiles),measurement,setting,value
C[C@H](NC(=O)c1c(N)nn2cccnc12)c1cc2cccc(C#Cc3cnn(C)c3)c2c(=O)n1-c1ccccc1 [Compound BB],effect on IFN-γ,human T cells,little to no effect
same,tumor growth,4T1 breast cancer,further reduction in tumor growth
same,Stability in serum (24-hour unbound plasma concentration time course),[1],good stability in serum
same,MDSC expansion after cyclophosphamide treatment,CT26 tumors,expansion is decreased
same,"Tumor growth, orthotopic 4T1 breast cancer model","4T1 tumors; 7.5 mg/kg PO QD 3 weeks, FIG. 33A",reduced tumor growth
same,"Tumor growth, subcutaneous 4T1 breast cancer model","4T1 tumors; 15 mg/kg PO QD 2 weeks, FIG. 36",demonstrated single agent activity
same,Anti-tumor effect maintained after discontinuation of treatment,"4T1 tumors; subcutaneous 4T1, FIG. 34",at least 6 days
same,Infiltrating TAMs,[2]; FIG. 38A,the number of infiltrating TAMs was decreased
same,CD206 staining (M2 polarized suppressive macrophages),[2]; FIG. 39,CD206 staining was reduced
same,"Tumor volume, GL-261 syngeneic glioma model",GL261-Luc tumors,reduced tumor volume
same,Suppression of T cell proliferation by cells derived from CT26 tumors,[3],can release the suppression
same,Ex vivo whole blood CXCL12 stimulation of phospho-AKT in T cells,[4]; FIG. 58,inhibits the ex vivo whole blood stimulation of phosphor-AKT in T cells
same,Ex vivo whole blood CXCL12 stimulation of phospho-AKT in monocytes,[4]; FIG. 59,inhibits the ex vivo whole blood stimulation of phosphor-AKT in monocytes
same,"Mean ankle diameter, day 9 to day 17",[5],has therapeutic effects
